Like-named read-outs stand apart in the source and are kept apart here. Values belong to the compound of their own block, whether it stands above or below them.
Experiments:
[1] = biological target: T1, Mcl-1/Bim interaction, recombinant human Mcl-1 (171-327) (Homo sapiens, UniProt Q07820); assay: Cell free Mcl-1: Bim Affinity Assay (Mcl-1 HTRF); type: binding
T1 construct: made in house
Procedure, shortened: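 Biotin-Bim(51-76) peptide, TR-FRET readout, overnight incubation; IC50 from duplicate competition curves, 4-parameter fit.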

[2] = test system: OPM-2 human multiple myeloma cell line; assay: Cell Viability Assay (OPM-2 10 FBS); type: cell-based; conditions: Homo sapiens, OPM-2, 16 h, OPM-2 cells, 16 h, CellTiter-Glo
Procedure, shortened: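 OPM-2 myeloma cells, 3000/well in medium with 10% FBS, exposed to serially diluted compounds for 16 h at 37° C./5% CO2. Viability read by CellTiter-Glo luminescence; IC50 from 4-parameter logistic fit.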

[3] = not given; remark: listed apart in the source
[4] = cell free Mcl-1:Bim TR-FRET, recombinant human Mcl-1 (171-327)
[5] = TR-FRET, 0.1 nM Mcl-1 (171-327), 0.05 nM biotin-Bim (51-76)

T1 sequence (Q07820 171-327): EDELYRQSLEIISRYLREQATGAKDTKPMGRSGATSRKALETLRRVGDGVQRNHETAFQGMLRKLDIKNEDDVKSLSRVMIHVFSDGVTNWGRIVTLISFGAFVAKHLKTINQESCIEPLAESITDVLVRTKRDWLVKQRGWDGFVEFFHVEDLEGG

- IC50 [1, 4]: 6.21 nM
- IC50 [2]: 23300 nM
Compound: C[C@@H]1CC/C=C/[C@H](O)[C@@H]2CC[C@H]2CN2C[C@@]3(CCCc4nc(Cl)ccc43)COc3ccc(cc32)C(=O)NS1(=O)=O [Example 791, (3R,6R,7S,8E,12R,22S)-2′-chloro-7-hydroxy-12-methyl-7′,8′-dihydro-6′H,15H-spiro[20-oxa-13-thia-1,14-diazatetracyclo [14.7.2.0^3,6.0^19,24]pentacosa-8,16,18,24-tetraene-22,5′-quinolin]-15-one 13,13-dioxide]
- ring closure, isolated yield (from C=CCC[C@@H](C)S(=O)(=O)NC(=O)c1ccc2c(c1)N(C[C@@H]1CC[C@H]1[C@@H](O)/C=C/CCC)C[C@@]1(CCCc3nc(Cl)ccc31)CO2, rcm bond, 16-membered ring, Hoveyda-Grubbs II, AcOH, 1.98 mM): 40%

- IC50 [1, 4]: 0.46 nM
- IC50 [2]: 1180 nM
Compound: C[C@@H]1C/C=C/[C@H](O)[C@@H]2CC[C@H]2CN2C[C@@]3(CCCc4cc(Cl)ccc43)COc3ccc(cc32)C(=O)NS1(=O)=O [Example 758, (1S,3′R,6′R,7′S,8′E,11′R)-6-chloro-7′-hydroxy-11′-methyl-3,4-dihydro-2H,14′H-spiro[naphthalene-1,21′-[19]oxa[12]thia[1,13]diazatetracyclo[13.7.2.0^3,6.0^18,23]tetracosa[8,15,17,23]tetraen]-14′-one 12′,12′-dioxide]
- ring closure, isolated yield (from C=CC[C@@H](C)S(=O)(=O)NC(=O)c1ccc2c(c1)N(C[C@@H]1CC[C@H]1[C@@H](O)C=C)C[C@@]1(CCCc3cc(Cl)ccc31)CO2, rcm bond, 15-membered ring, Hoveyda-Grubbs II, DCM, 2.65 mM, 7.0 h): 23.8%

- IC50 [1, 4]: 4 nM
Compound: CC[C@@H]1CC/C=C/C[C@H](O)[C@@H]2CC[C@H]2CN2C[C@@]3(CCCc4cc(Cl)ccc43)COc3ccc(cc32)C(=O)NS1(=O)=O [Example 553, (1S,3′R,6′R,7′S,9′E,13′R)-6-chloro-13′-ethyl-7′-hydroxy-3,4-dihydro-2H,16′H-spiro[naphthalene-1,23′-[21]oxa[14]thia[1,15]diazatetracyclo[15.7.2.0^3,6.0^20,25]hexacosa[9,17,19,25]tetraen]-16′-one 14′,14′-dioxide]
- ring closure, isolated yield (from C=CCC[C@@H](CC)S(=O)(=O)NC(=O)c1ccc2c(c1)N(C[C@@H]1CC[C@H]1[C@@H](O)CC=C)C[C@@]1(CCCc3cc(Cl)ccc31)CO2, rcm bond, 17-membered ring, Hoveyda-Grubbs II (10 mol%), DCM, 1.4 mM, 45.0 °C, 6.0 h): 38%

- IC50 [1, 4]: 2.42 nM
- IC50 [2]: 9260 nM
Compound: CC[C@@H]1CC/C=C/[C@H](O)[C@@H]2CC[C@H]2CN2C[C@@]3(CCCc4nc(Cl)ccc43)COc3ccc(cc32)C(=O)NS1(=O)=O [Example 798, (3R,6R,7S,8E,12R,22S)-2′-chloro-12-ethyl-7-hydroxy-7′,8′-dihydro-6′H,15H-spiro[20-oxa-13-thia-1,14-diazatetracyclo[14.7.2.0^3,6.0^19,24]pentacosa-8,16,18,24-tetraene-22,5′-quinolin]-15-one 13,13-dioxide]
- ring closure, isolated yield (from C=CCC[C@@H](CC)S(=O)(=O)NC(=O)c1ccc2c(c1)N(C[C@@H]1CC[C@H]1[C@@H](O)/C=C/CCC)C[C@@]1(CCCc3nc(Cl)ccc31)CO2, rcm bond, 16-membered ring, Hoveyda-Grubbs II, AcOH, 2.04 mM): 39%

- IC50 [1, 5]: 10.8 nM
Compound: O=C1NS(=O)(=O)CC/C=C/[C@@H](O)[C@@H]2CC[C@H]2CN2C[C@@]3(CCCc4cc(Cl)ccc43)COc3ccc1cc32 [Example 221, (1S,3′R,6′R,7′R,8′E)-6-chloro-7′-hydroxy-3,4-dihydro-2H,14′H-spiro[naphthalene-1,21′-[19]oxa[12]thia[1,13]diazatetracyclo[13.7.2.0^3,6.0^18,23]tetracosa [8,15,17,23]tetraen]-14′-one 12′,12′-dioxide]
- ring closure, isolated yield (from C=CCCS(=O)(=O)NC(=O)c1ccc2c(c1)N(C[C@@H]1CC[C@H]1[C@H](O)/C=C/CCC)C[C@@]1(CCCc3cc(Cl)ccc31)CO2, rcm bond, 15-membered ring, Hoveyda-Grubbs II (portionwise), AcOH, 5.2 mM): 48%

- IC50 [1, 5]: 32.8 nM
- IC50 [2]: 21400 nM
Compound: O=C1NS(=O)(=O)CCCC/C=C/[C@@H](O)[C@@H]2CC[C@H]2CN2C[C@@]3(CCCc4cc(Cl)ccc43)COc3ccc1cc32 [Example 227, (1S,3′R,6′R,7′R,8′E)-6-chloro-7′-hydroxy-3,4-dihydro-2H,16′H-spiro[naphthalene-1,23′-[21]oxa[14]thia[1,15]diazatetracyclo[15.7.2.0^3,6.0^20,25]hexacosa[8,17,19,25]tetraen]-16′-one 14′,14′-dioxide]
- ring closure, isolated yield (from C=CCCCCS(=O)(=O)NC(=O)c1ccc2c(c1)N(C[C@@H]1CC[C@H]1[C@H](O)/C=C/CCC)C[C@@]1(CCCc3cc(Cl)ccc31)CO2, rcm bond, 17-membered ring, Hoveyda-Grubbs II, AcOH, 5.2 mM): 59%

The remaining lines, values behind:

Compound: (1S,3′R,6′R,11′S)-6-chloro-11′-methyl-3,4-dihydro-2H,7′,14′H-spiro[naphthalene-1,21′-[19]oxa[12]thia[1,13]diazatetracyclo[13.7.2.0^3,6.0^18,23]tetracosa [15,17,23]triene]-7′,14′-dione 12′,12′-dioxide
- ring closure, yield after HPLC ([3]; rcm bond, 15-membered ring): 4.8%

Compound: N#CC[C@@H]1CC/C=C/[C@H](O)[C@@H]2CC[C@H]2CN2C[C@@]3(CCCc4cc(Cl)ccc43)COc3ccc(cc32)C(=O)NS1(=O)=O
- ring closure, yield after HPLC ([3]; from C=CC/C=C/[C@H](O)[C@@H]1CC[C@H]1CN1C[C@@]2(CCCc3cc(Cl)ccc32)COc2ccc(C(=O)NS(=O)(=O)[C@@H](CC#N)CCC=C)cc21, rcm bond, 16-membered ring, Hoveyda-Grubbs II (20 mol%), reduced pressure, AcOH, 2.89 mM, […]): 3.43%

Compound: (1S,3′R,6′R,7′S,8′E,11′S,12′R)-6-chloro-7′-hydroxy-12′-(2-methoxyethyl)-11′-methyl-3,4-dihydro-2H,15′H-spiro[naphthalene-1,22′-[20]oxa[13]thia[1,14]diazatetracyclo[14.7.2.0^3,6.0^19,24]pentacosa [8,16,18,24]tetraen]-15′-one 13′,13′-dioxide or [...] or (1S,3′R,6′R,7′S,8′E,11′R,12′R)-6-chloro-7′-hydroxy-12′-(2-methoxyethyl)-11′-methyl-3,4-dihydro-2H,15′H-spiro[naphthalene-1,22′-[20]oxa[13]thia[1,14]diazatetracyclo[14.7.2.0^3,6.0^19,24]pentacosa[8,16,18,24]tetraen]-15′-one 13′,13′-dioxide
- ring closure, yield after HPLC ([3]; rcm bond, 16-membered ring, Hoveyda-Grubbs II, 1,2-dichloroethane, 3.67 mM, 50.0 °C): 8.2%

Compound: (1S,3′R,6′R,7′S,8′E,12′R)-12′-(2-(tert-butylsulfonyl)ethyl)-6-chloro-7′-hydroxy-3,4-dihydro-2H,15′H-spiro[naphthalene-1,22′-[20]oxa[13]thia[1,14]diazatetracyclo[14.7.2.0^3,6.0^19,24]pentacosa[8,16,18,24]tetraen]-15′-one 13′,13′-dioxide or (1S,3′R,6′R,7′S,8′E,12′S)-12′-(2-(tert-butylsulfonyl)ethyl)-6-chloro-7′-hydroxy-3,4-dihydro-2H,15′H-spiro[naphthalene-1,22′-[20]oxa[13]thia [1,14]diazatetracyclo[14.7.2.0^3,6.0^19,24]pentacosa[8,16,18,24]tetraen]-15′-one 13′,13′-dioxide
- ring closure, yield after HPLC ([3]; rcm bond, 16-membered ring, Hoveyda-Grubbs II (20 mol%), reduced pressure, AcOH, 2.9 mM, […]): 6.75%

Compound: C[C@H]1[C@@H]2/C=C/[C@H](O)[C@@H]3CC[C@H]3CN3C[C@@]4(CCCc5cc(Cl)ccc54)COc4ccc(cc43)C(=O)NS(=O)(=O)[C@@H]1CCC2 [Example 112, (1S,3′R,6′R,7′S,8′E,10′S,14′R,28′S)-6-chloro-7′-hydroxy-28′-methyl-3,4-dihydro-2H,17′H-spiro[naphthalene-1,24′-[22]oxa[15]thia[1,16]diazapentacyclo[16.7.2.1^10,14.0^3,6.0^21,26]octacosa[8,18,20,26]tetraen]-17′-one 15′,15′-dioxide]
- ring closure, isolated yield (from C[C@H]1[C@H](/C=C/[C@H](O)[C@@H]2CC[C@H]2CN2C[C@@]3(CCCc4cc(Cl)ccc43)COc3ccc(C(=O)O)cc32)CCC[C@H]1S(N)(=O)=O, amide bond, 16-membered ring, EDC/DMAP, DCM, 2.0 mM, 16.0 h): 21%
- IC50 [1, 5]: 0.63 nM
- IC50 [2]: 172 nM

Compound: C[C@@H]1CC=C[C@H](O)[C@]2(C)CC[C@H]2CN2C[C@@]3(CCCc4cc(Cl)ccc43)COc3ccc(cc32)C(=O)NS1(=O)=O
- ring closure, yield after HPLC ([3]; from C[C@H](C/C=C/[C@H](O)[C@]1(C)CC[C@H]1CN1C[C@@]2(CCCc3cc(Cl)ccc32)COc2ccc(C(=O)O)cc21)S(N)(=O)=O, amide bond, 15-membered ring, EDC/DMAP, DCM, 2.0 mM, 16.0 h): 7.1%

Compound: O=C1NS(=O)(=O)NCCC=C[C@H](O)[C@@H]2CC[C@H]2CN2C[C@@]3(CCCc4cc(Cl)ccc43)COc3ccc1cc32
- ring closure, isolated yield (from C=CCCNS(=O)(=O)NC(=O)c1ccc2c(c1)N(C[C@@H]1CC[C@H]1[C@@H](O)C=C)C[C@@]1(CCCc3cc(Cl)ccc31)CO2, rcm bond, 16-membered ring, Hoveyda-Grubbs II, 1,1-dichloroethane, 1.5 mM, 50.0 °C, 24.0 h): 61%

Compound: C[C@H]1CC=CC[C@H](O)[C@@H]2CC[C@H]2CN2C[C@@]3(CCCc4cc(Cl)ccc43)COc3ccc(cc32)C(=O)NS(=O)(=O)[C@H]1C (single isomer, unassigned)
- ring closure, isolated yield (from C=CC[C@H](C)[C@H](C)S(=O)(=O)NC(=O)c1ccc2c(c1)N(C[C@@H]1CC[C@H]1[C@@H](O)CC=C)C[C@@]1(CCCc3cc(Cl)ccc31)CO2, rcm bond, 17-membered ring, Hoveyda-Grubbs II (10 mol%), DCM, 1.6 mM, 45.0 °C): 25%

From US12091425B2 (AMGEN INC., priority 2016, dated 2024)
